Laboratory results as given in article PMC9905731, “PIN1 and PIN4 inhibition via parvulin impeders Juglone, PiB, ATRA, 6,7,4′-THIF, KPT6566, and EGCG thwarted hepatitis B virus replication” (Frontiers in Microbiology, 2023).

Biological target: T1, PIN1 (Homo sapiens, UniProt Q13526)
T1 construct: Since the endogenous PIN1 and PIN4 levels remained higher in HBV replicating and non-replicating HCC-derived cell lines; endogenous in cells; host or cells: Huh7, HepAD38, HepG2, HepG2.2.15 (human HCC cell lines)
Test: PIN1 expression by immunoblotting in HCC cells
Assay type: cell-based
Settings: 30 μM ATRA, 72 h

T1 sequence (Q13526 whole entry): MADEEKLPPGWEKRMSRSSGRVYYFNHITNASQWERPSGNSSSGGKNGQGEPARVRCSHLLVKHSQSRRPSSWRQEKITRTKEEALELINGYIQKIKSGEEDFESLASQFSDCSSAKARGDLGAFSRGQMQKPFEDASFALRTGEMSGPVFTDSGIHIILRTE

## CC1=C(/C=C/C(C)=C/C=C/C(C)=C/C(=O)O)C(C)(C)CCC1 [ATRA, All-trans-retinoic acid]
  expression level of PIN1: reduced
